In patent US20240279214A1, “ALPHA4 BETA7 INEGRIN ANTAGONISTS AND USES THEREOF” (XinThera, Inc., priority 2022, published 2024) one finds ring closure, isolated yield and EC50 data, which are given here for 18 compounds.

Molecules are shown by their SMILES.

System in one data set: not given
Experiment: not given
As to conditions: from CCOC(=O)C[C@H](NC(=O)C(c1cc(Br)ccc1F)n1cc(CCN2CC(F)C2)c(C(F)(F)F)cc1=O)c1cc(-c2c(C)cccc2O)cc(C)c1F; ether bond; 13-membered ring; CuI/N1,N2-dimethylcyclohexane-1,2-diamine/K2CO3; dioxane; 18.7 mM; 100.0 °C; 16.0 h.
Take `CCOC(=O)C[C@@H]1NC(=O)C(n2cc(CCN3CC(F)C3)c(C(F)(F)F)cc2=O)c2cc(ccc2F)Oc2cccc(C)c2-c2cc(C)c(F)c1c2` (stereo partly drawn): the ring closure, isolated yield came to 72.5%.

The data set is the same for the next values; noted with them: from CCOC(=O)C[C@H](NC(=O)C(c1cc(Br)ccc1F)n1cc(CCN2CC(F)C2)c(C(F)(F)F)cc1=O)c1cc(-c2c(C)cccc2O)cc(Cl)c1F; ether bond; 13-membered ring; CuI/K2CO3/(1R,2R)-N1,N2-dimethylcyclohexane-1,2-diamine; 1,4-dioxane; 46.7 mM; 100.0 °C; 16.0 h.
Turning to `CCOC(=O)C[C@@H]1NC(=O)C(n2cc(CCN3CC(F)C3)c(C(F)(F)F)cc2=O)c2cc(ccc2F)Oc2cccc(C)c2-c2cc(Cl)c(F)c1c2` (stereo in doubt), the ring closure, isolated yield worked out at 64.9%.

The same data set, now with this note: from CCOC(=O)C[C@H](NC(=O)C(c1cc(Br)ccc1F)n1ccc(C(F)(F)F)c(CC)c1=O)c1cc(-c2c(C)cccc2O)cc(C)c1F; ether bond; 13-membered ring; CuI/(1R,2R)-N,N'-dimethylcyclohexane-1,2-diamine/K2CO3; 1,4-dioxane; 20.0 mM; 100.0 °C; 16.0 h.
`CCOC(=O)C[C@@H]1NC(=O)C(n2ccc(C(F)(F)F)c(CC)c2=O)c2cc(ccc2F)Oc2cccc(C)c2-c2cc(C)c(F)c1c2` (stereo partly drawn) came in with a ring closure, isolated yield of 56.1%.

The target in a further data set is T1, a4b7 integrin interaction with MadCAM-1 (Homo sapiens, UniProt P13612+P26010).
T1 construct: capture of a4b7 integrin expressing cells, RPMI8866; endogenous in cells; host or cells: RPMI8866
T1 sequence (P13612 34-1032): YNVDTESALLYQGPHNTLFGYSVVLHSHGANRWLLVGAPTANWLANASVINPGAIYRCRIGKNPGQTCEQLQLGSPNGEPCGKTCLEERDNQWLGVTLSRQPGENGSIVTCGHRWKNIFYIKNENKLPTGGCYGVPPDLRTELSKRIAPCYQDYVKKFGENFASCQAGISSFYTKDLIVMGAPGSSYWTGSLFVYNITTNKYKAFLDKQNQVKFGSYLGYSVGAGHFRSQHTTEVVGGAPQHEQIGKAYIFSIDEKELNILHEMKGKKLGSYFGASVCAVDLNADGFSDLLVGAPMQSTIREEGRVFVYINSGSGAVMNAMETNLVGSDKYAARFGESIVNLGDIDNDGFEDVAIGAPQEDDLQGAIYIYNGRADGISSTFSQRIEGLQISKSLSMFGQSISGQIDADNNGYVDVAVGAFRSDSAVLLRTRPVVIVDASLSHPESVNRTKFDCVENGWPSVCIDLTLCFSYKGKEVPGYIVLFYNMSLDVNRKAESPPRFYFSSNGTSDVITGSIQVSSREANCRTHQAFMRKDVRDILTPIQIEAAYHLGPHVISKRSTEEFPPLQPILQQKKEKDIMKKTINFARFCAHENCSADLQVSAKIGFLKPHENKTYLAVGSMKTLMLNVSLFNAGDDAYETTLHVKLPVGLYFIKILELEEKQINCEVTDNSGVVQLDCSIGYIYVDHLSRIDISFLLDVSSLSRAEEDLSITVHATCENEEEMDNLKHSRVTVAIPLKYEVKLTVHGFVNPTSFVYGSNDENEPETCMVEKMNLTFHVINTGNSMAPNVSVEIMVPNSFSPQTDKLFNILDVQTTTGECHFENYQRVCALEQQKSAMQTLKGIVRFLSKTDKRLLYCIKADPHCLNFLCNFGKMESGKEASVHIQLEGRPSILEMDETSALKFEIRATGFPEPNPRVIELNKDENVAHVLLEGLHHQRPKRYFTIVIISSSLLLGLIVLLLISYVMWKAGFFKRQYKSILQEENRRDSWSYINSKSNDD
T1 sequence (P26010 20-798): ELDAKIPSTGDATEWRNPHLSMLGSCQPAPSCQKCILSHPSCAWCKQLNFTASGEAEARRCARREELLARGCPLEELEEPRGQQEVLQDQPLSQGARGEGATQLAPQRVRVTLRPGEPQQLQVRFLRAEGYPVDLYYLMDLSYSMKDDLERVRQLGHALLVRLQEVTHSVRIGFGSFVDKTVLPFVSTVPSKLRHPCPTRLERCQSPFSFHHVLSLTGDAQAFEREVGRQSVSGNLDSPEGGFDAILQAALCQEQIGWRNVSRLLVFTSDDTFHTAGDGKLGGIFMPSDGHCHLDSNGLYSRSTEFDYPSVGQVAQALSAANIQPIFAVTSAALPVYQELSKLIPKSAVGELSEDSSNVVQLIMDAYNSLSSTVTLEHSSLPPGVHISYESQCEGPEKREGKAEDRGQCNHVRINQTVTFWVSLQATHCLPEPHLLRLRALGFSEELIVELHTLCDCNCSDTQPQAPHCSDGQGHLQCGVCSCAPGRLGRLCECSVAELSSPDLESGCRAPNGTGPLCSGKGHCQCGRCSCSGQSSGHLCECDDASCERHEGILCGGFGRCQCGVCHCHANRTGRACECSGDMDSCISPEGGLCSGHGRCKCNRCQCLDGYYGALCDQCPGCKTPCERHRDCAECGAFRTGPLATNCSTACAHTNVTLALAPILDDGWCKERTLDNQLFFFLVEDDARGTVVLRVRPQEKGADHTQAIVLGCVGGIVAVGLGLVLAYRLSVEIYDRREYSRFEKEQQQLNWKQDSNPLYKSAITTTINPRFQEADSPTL
In words: a4b7 Cell Capture Assay (RPMI8866 cells on MAdCAM-1 Fc coated plates). Type of data set: cell-based. As to conditions: 50% human serum, 1 mM MgCl2, 1 hour incubation, CellTiter-Glo luminescence, read-out: a4B7 cell capture assay RMPI8866-MadCAM EC50. The method in brief: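 RPMI8866 cells (1.0×10^6 cells/mL) in 1 mM MgCl2, 25 mM HEPES, 50% human serum were added to plates coated with human MAdCAM-1–IgG1 Fc (1.0 μg/mL) and exposed to compound (9-point, 0.08–1000 nM, 0.1% DMSO) for 1 h at 37 °C. Bound cells were read by CellTiter-Glo luminescence. IC50 came from 4-parameter fit of normalized % inhibition.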
Background: Cellular ATP, detected with luciferase, serves as a proxy for viable cell number.
As usually defined, the EC50 is the concentration giving half of the maximal effect. Regarding `Cc1cc2cc(c1F)[C@H](CC(=O)O)NC(=O)[C@@H](n1cc(CCN(C)C)c(C(F)(F)F)cc1=O)c1cc(ccc1F)Oc1cccc(C)c1-2` (relative stereo) [Example 29, [(14R*,17S)-14-{5-[2-(dimethylamino)ethyl]-2-oxo-4-(trifluoromethyl)pyridin-1-yl}-12,19-difluoro-3,20-dimethyl-15-oxo-8-oxa-16-azatetracyclo[16.3.1.1^{9,13}.0^{2,7}]tricosa-1(22),2(7),3,5,9,11,13(23),18,20-nonaen-17-yl]acetic acid], the EC50 was determined as 0.07 nM. On the same count and under the same terms, the figure for `Cc1cccc2c1-c1cc(C3CC3)c(F)c(c1)[C@H](CC(=O)O)NC(=O)[C@@H](n1ccc(C(F)(F)F)cc1=O)c1cc(ccc1F)O2` (single isomer, unassigned) [Example 73] is 27 nM. As for `Cc1cc2cc(c1F)[C@H](CC(=O)O)NC(=O)[C@@H](n1ccc(C(F)(F)F)cc1=O)c1cc(ccc1F)COc1cccc(C)c1-2` (single isomer, unassigned) [Example 44], the EC50 worked out at 160 nM. For `Cc1cccc2c1-c1cc(C3CC3)c(F)c(c1)[C@H](CC(=O)O)NC(=O)[C@@H](n1cc(CCN3CC(F)C3)c(C(F)(F)F)cc1=O)c1cccc(c1)O2` (relative stereo) [Example 9, [(14R*,17S)-20-cyclopropyl-19-fluoro-14-{5-[2-(3-fluoroazetidin-1-yl)ethyl]-2-oxo-4-(trifluoromethyl)pyridin-1-yl}-3-methyl-15-oxo-8-oxa-16-azatetracyclo[16.3.1.1^{9,13}.0^{2,7}]tricosa-1(21),2(7),3,5,9,11,13(23),18(22),19-nonaen-17-yl]acetic acid], the EC50 stood at 72 nM.

In the case of `COc1cc(C)c2c(c1)Oc1ccc(F)c(c1)[C@H](n1ccc(C(F)(F)F)cc1=O)C(=O)N[C@@H](CC(=O)O)c1cc-2cc(C)c1F` (single isomer, unassigned) [Example 80], the concentration for a half-maximal effect (EC50) worked out at 58 nM. On the same count and under the same terms, the figure for `Cc1cccc2c1-c1cc(Cl)c(F)c(c1)[C@H](CC(=O)O)NC(=O)[C@@H](n1cc(CCN3CC(F)C3)c(C(F)(F)F)cc1=O)c1cc(ccc1F)O2` (relative stereo) [Example 25, [(14R*,17S)-20-chloro-12,19-difluoro-14-{5-[2-(3-fluoroazetidin-1-yl)ethyl]-2-oxo-4-(trifluoromethyl)pyridin-1-yl}-3-methyl-15-oxo-8-oxa-16-azatetracyclo[16.3.1.1^{9,13}.0^{2,7}]tricosa-1(22),2(7),3,5,9,11,13(23),18,20-nonaen-17-yl]acetic acid] is 2 nM; for `Cc1cccc2c1-c1ccc(F)c(c1)[C@H](CC(=O)O)NC(=O)[C@@H](n1cc(CCN3CC(F)C3)c(C(F)(F)F)cc1=O)c1cc(ccc1F)O2` [Example 32, 2-((5S,8S)-1^4,4^4-difluoro-5-(5-(2-(3-fluoroazetidin-1-yl)ethyl)-2-oxo-4-(trifluoromethyl)pyridin-1(2H)-yl)-2^6-methyl-6-oxo-3-oxa-7-aza-1,4(1,3),2(1,2)-tribenzenacyclooctaphane-8-yl)acetic acid] it is 0.95 nM; for `Cc1cc(C(F)(F)F)cc2c1-c1cc(c(F)c(C(F)(F)F)c1)[C@H](CC(=O)O)NC(=O)[C@@H](n1cc(CCN3CC(F)C3)c(C(F)(F)F)cc1=O)c1cccc(c1)O2` (relative stereo) [Example 5, [(14R*,17S)-19-fluoro-14-{5-[2-(3-fluoroazetidin-1-yl)ethyl]-2-oxo-4-(trifluoromethyl)pyridin-1-yl}-3-methyl-15-oxo-5,20-bis(trifluoromethyl)-8-oxa-16-azatetracyclo[16.3.1.1^{9,13}.0^{2,7}]tricosa-1(21),2(7),3,5,9,11,13(23),18(22),19-nonaen-17-yl]acetic acid] it is 330 nM. For the compound `Cc1cccc2c1-c1cc(C3CC3)c(F)c(c1)[C@H](CC(=O)O)NC(=O)[C@@H](n1ccc(C(F)(F)F)cc1=O)c1cc(ccc1F)CO2` (single isomer, unassigned) [Example 78], the EC50 came to 360 nM.

For the compound `Cc1cc2cc(c1F)[C@H](CC(=O)O)NC(=O)[C@@H](n1cc(CCN3CC(F)C3)c(C(F)(F)F)cc1=O)c1cc(ccc1F)COc1cc(C#N)cc(C)c1-2` (single isomer, unassigned) [Example 54], the EC50 came to 27 nM. For the compound `Cc1cc2cc(c1F)[C@H](CC(=O)O)NC(=O)[C@@H](n1cc(CCN3CC(F)C3)c(C(F)(F)F)cc1=O)c1cc(ccc1F)Oc1cc(C(C)(C)O)cc(C)c1-2` (single isomer, unassigned) [Example 48], the EC50 was 0.5 nM. On the same count and under the same terms, next, `Cc1ccc2cc1[C@H](n1cc(CCN3CC(F)C3)c(C(F)(F)F)cc1=O)C(=O)N[C@@H](CC(=O)O)c1cc(cc(C)c1F)-c1c(C)cccc1OC2` (single isomer, unassigned) [Example 74]: 20 nM. The same measure, in the same setting: next, `Cc1cc2cc(c1F)[C@H](CC(=O)O)NC(=O)[C@@H](n1cc(CCN(C)C)c(C(F)(F)F)cc1=O)c1cccc(c1)Oc1cccc(C)c1-2` (relative stereo) [Example 23, [(14R*,17S)-14-{5-[2-(dimethylamino)ethyl]-2-oxo-4-(trifluoromethyl)pyridin-1-yl}-19-fluoro-3,20-dimethyl-15-oxo-8-oxa-16-azatetracyclo[16.3.1.1^{9,13}.0^{2,7}]tricosa-1(22),2(7),3,5,9,11,13(23),18,20-nonaen-17-yl]acetic acid]: 2.3 nM. For the compound `Cc1cc2cc(c1F)[C@H](CC(=O)O)NC(=O)[C@@H](n1cc(CCN3CC(F)C3)c(C(F)(F)F)cc1=O)c1cc(ccc1F)Oc1nn(CC3CC3)cc1-2` (single isomer, unassigned) [Example 60], the EC50 was 380 nM. Turning to `Cc1cc2cc(c1F)[C@H](CC(=O)O)NC(=O)[C@@H](n1cc(CCN3CC(F)C3)cc(C)c1=O)c1cc(ccc1F)Oc1cccc(C)c1-2` (single isomer, unassigned) [Example 66], the EC50 is 0.4 nM.
